Activity calls are given as the source filed them. No cut-off for these calls is given here.

Experiment [1] concerns the target T1, 14-3-3 protein sigma (Homo sapiens) (UniProt P31947).
T1 sequence (whole entry): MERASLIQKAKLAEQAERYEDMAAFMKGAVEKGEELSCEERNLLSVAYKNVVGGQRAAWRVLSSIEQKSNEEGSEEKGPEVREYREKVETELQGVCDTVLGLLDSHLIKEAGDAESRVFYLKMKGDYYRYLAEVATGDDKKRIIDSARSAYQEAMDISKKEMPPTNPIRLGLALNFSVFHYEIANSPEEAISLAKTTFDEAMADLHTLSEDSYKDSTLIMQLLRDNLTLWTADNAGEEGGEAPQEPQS
Put plainly: Binding affinity to 6x-His tagged 14-3-3-sigma (unknown origin) expressed in Escherichia coli BL21 (DE3) in presence of acetylated p53pT387 peptide by crystallography.

In experiment [2] the target is T1, 14-3-3 protein sigma (Homo sapiens). The experiment can be described thus: Binding affinity to 15N2H labeled and 6x-His tagged 14-3-3-sigma (unknown origin) expressed in Escherichia coli assessed as induction of broadening (intensity decrease) and chemical shift value perturbation at 2000 uM in presence of p53pT387 peptide by 1H-15N TROSY-HSQC NMR spectroscopy.

Experiment [3] shares this target. Put plainly: Binding affinity to 6x-His tagged 14-3-3-sigma (unknown origin) expressed in Escherichia coli at 1 mM by fluorescence polarization assay.
Experiment [4] has the same target. Put plainly: Binding affinity to 6x-His tagged 14-3-3-sigma (unknown origin) expressed in Escherichia coli BL21 (DE3) at 500 uM in presence of p53pT387 peptide by WaterLOGSY NMR spectroscopy.
The target is the same in experiment [5]. The experiment can be described thus: Binding affinity to 6x-His tagged 14-3-3-sigma (unknown origin) expressed in Escherichia coli at 1 mM by SPR assay.
Experiment [6] shares this target. Put plainly: Binding affinity to 15N2H labeled and 6x-His tagged 14-3-3-sigma (unknown origin) expressed in Escherichia coli assessed as induction of broadening (intensity decrease) and chemical shift value perturbation at 2000 uM in absence of p53pT387 peptide by 1H-15N TROSY-HSQC NMR spectroscopy.

With `CC(CN)Nc1cccc2cc(C(=N)N)sc12` (stereo not drawn), the result in experiment [1] was Active.
Same read-out and setting: to `N=C(N)c1cc(-c2ccccc2)c(-c2c[nH]cn2)s1` belongs “Active”; to `CC(CN)Nc1cc(CS)cc2sc(C(=N)N)cc12` (stereo not drawn), “Active”.
As to `CC(C)Oc1ccc(C(=O)NCCN)c2cc(C(=N)N)sc12`, the outcome in experiment [2], in experiment [3], in experiment [4], in experiment [5] and in experiment [6] was Active.

(Values after ChEMBL document CHEMBL4616674, “Fragment-based Differential Targeting of PPI Stabilizer Interfaces” (J Med Chem, 2020).)
